Measurements from PubChem BioAssay (NCI).
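Following 48 hours of exposure in 96-well plates, responses at five concentrations were used to interpolate endpoints linearly. Abbreviation: GI50, concentration required for 50% inhibition of growth. TGI marks complete inhibition of growth.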

Legend:
Experiment in all cases: NCI-60 cell line screen, 48 h
MDA-N = system: MDA-N
BT-549 breast = system: BT-549 breast
TK-10 renal = system: TK-10 renal
HS 578T breast = system: HS 578T breast
PC-3 prostate = system: PC-3 prostate
T-47D breast = system: T-47D breast
ACHN renal = system: ACHN renal
M19-MEL melanoma = system: M19-MEL melanoma
DMS 114 small cell lung = system: DMS 114 small cell lung
HOP-18 NSCLC = system: HOP-18 NSCLC
KM20L2 colon = system: KM20L2 colon
DLD-1 colon = system: DLD-1 colon
DMS 273 small cell lung = system: DMS 273 small cell lung
SNB-78 CNS = system: SNB-78 CNS

## COc1ccc(C2=[S+]C(c3ccccc3)(c3ccccc3)c3ccccc32)cc1
MDA-N
  TGI: 54.5 µM
BT-549 breast
  TGI: 53.9 µM
TK-10 renal
  TGI: 73.3 µM
HS 578T breast
  TGI: 68 µM
PC-3 prostate
  TGI: > 100 µM
T-47D breast
  TGI: 84.3 µM
ACHN renal
  TGI: 86.1 µM

## O=c1nc2ccc([N+](=O)[O-])cc2[n+]([O-])[nH]1
MDA-N
  TGI: > 100 µM
BT-549 breast
  TGI: > 100 µM
TK-10 renal
  TGI: > 100 µM
HS 578T breast
  TGI: > 100 µM
PC-3 prostate
  TGI: > 100 µM
T-47D breast
  TGI: > 100 µM
ACHN renal
  TGI: > 100 µM

## C/C(=N\NC(=O)c1ccc(Cl)cc1)c1nc2ncccc2[nH]1
MDA-N
  TGI: > 100 µM
BT-549 breast
  TGI: 85.5 µM
TK-10 renal
  TGI: 64.9 µM
HS 578T breast
  TGI: 93.5 µM
PC-3 prostate
  TGI: > 100 µM
T-47D breast
  TGI: > 100 µM
ACHN renal
  TGI: 44.7 µM

## COc1cc(-c2ccc(N=Nc3ccc4c(S(=O)(=O)O)cc(S(=O)(=O)O)c(N)c4c3O)c(OC)c2)ccc1N=Nc1ccc2c(S(=O)(=O)O)cc(S(=O)(=O)O)c(N)c2c1O
M19-MEL melanoma
  TGI: > 100 µM
DMS 114 small cell lung
  TGI: > 100 µM
HOP-18 NSCLC
  TGI: 98.1 µM
KM20L2 colon
  TGI: > 100 µM
DLD-1 colon
  TGI: > 100 µM
DMS 273 small cell lung
  TGI: > 100 µM
SNB-78 CNS
  TGI: > 100 µM

## N#[N+]c1c([O-])c2ccccc2c2ccccc12
MDA-N
  TGI: > 100 µM
BT-549 breast
  TGI: > 100 µM
TK-10 renal
  TGI: > 100 µM
HS 578T breast
  TGI: > 100 µM
PC-3 prostate
  TGI: > 100 µM
T-47D breast
  TGI: > 100 µM
ACHN renal
  TGI: > 100 µM

## CCOC(=O)NC(Nc1cc(Cl)ccc1OC)(C(F)(F)F)C(F)(F)F
MDA-N
  TGI: > 100 µM
BT-549 breast
  TGI: > 100 µM
TK-10 renal
  TGI: > 100 µM
HS 578T breast
  TGI: > 100 µM
T-47D breast
  TGI: > 100 µM
ACHN renal
  TGI: > 100 µM

## c1ccc2c(c1)NCc1cc3ccccc3nc1O2
M19-MEL melanoma
  TGI: > 100 µM
DMS 114 small cell lung
  TGI: > 100 µM
HOP-18 NSCLC
  TGI: > 100 µM
DLD-1 colon
  TGI: > 100 µM
DMS 273 small cell lung
  TGI: > 100 µM
SNB-78 CNS
  TGI: > 100 µM

## CCOC(=O)/C=C/c1c(C)[nH]c(=O)[nH]c1=O
M19-MEL melanoma
  TGI: > 250 µM
DMS 114 small cell lung
  TGI: > 250 µM
HOP-18 NSCLC
  TGI: > 250 µM
KM20L2 colon
  TGI: > 250 µM
DLD-1 colon
  TGI: > 250 µM
DMS 273 small cell lung
  TGI: > 250 µM
SNB-78 CNS
  TGI: > 250 µM

## O=C1CCC[C@H]2O[C@@H](COC(=O)c3ccccc3)C[C@H]2O1
MDA-N
  TGI: > 100 µM
HS 578T breast
  TGI: > 100 µM
PC-3 prostate
  TGI: > 100 µM
T-47D breast
  TGI: > 100 µM
ACHN renal
  TGI: > 100 µM

## c1cc2c3c(c1)c1cc4c(cc1c[n+]3CC2)OCO4
M19-MEL melanoma
  TGI: 5.21 µM
DMS 114 small cell lung
  TGI: 9.27 µM
HOP-18 NSCLC
  TGI: 88.4 µM
KM20L2 colon
  TGI: 49.7 µM
DLD-1 colon
  TGI: 121 µM
DMS 273 small cell lung
  TGI: 30.5 µM
SNB-78 CNS
  TGI: 47.1 µM

## Cc1ccc(Cl)cc1N=NC(=O)NNc1cc(Cl)ccc1C
MDA-N
  TGI: > 100 µM
BT-549 breast
  TGI: 43.9 µM
HS 578T breast
  TGI: 54.8 µM
PC-3 prostate
  TGI: 46.3 µM
T-47D breast
  TGI: > 100 µM

## O=C1C(CO)=C[C@H](O)[C@H]2O[C@@H]12
M19-MEL melanoma
  TGI: 292 µM
DMS 114 small cell lung
  TGI: 296 µM
HOP-18 NSCLC
  TGI: > 625 µM
KM20L2 colon
  TGI: > 625 µM
DLD-1 colon
  TGI: 227 µM
DMS 273 small cell lung
  TGI: 485 µM
SNB-78 CNS
  TGI: 480 µM

## c1ccc2c(c1)c1ccccc1n2Cn1c2ccccc2c2ccccc21
MDA-N
  TGI: > 100 µM
BT-549 breast
  TGI: > 100 µM
TK-10 renal
  TGI: > 100 µM
PC-3 prostate
  TGI: > 100 µM
T-47D breast
  TGI: > 100 µM
ACHN renal
  TGI: > 100 µM

## Cc1cn(-c2cccc(NC(=O)c3ccc(C)c(Nc4nccc(-c5cccnc5)n4)c3)c2)cn1
BT-549 breast
  GI50: 1.49 µM
  TGI: 3.11 µM
TK-10 renal
  GI50: 2.04 µM
  TGI: 3.6 µM
HS 578T breast
  GI50: 1.77 µM
  TGI: 5.43 µM
PC-3 prostate
  GI50: 2.33 µM
  TGI: 13.5 µM
T-47D breast
  GI50: 1.42 µM
  TGI: 9.6 µM
ACHN renal
  GI50: 1.69 µM
  TGI: 3.17 µM

## COc1cccc2c1C(=O)c1c(O)c3c(c(O)c1C2=O)C[C@@](O)(C(=O)COC(=O)c1ccccc1)C[C@@H]3OC1CC(N)C(O)C(C)O1 (stereo partly drawn)
BT-549 breast
  GI50: 0.7 µM
  TGI: 2.32 µM
TK-10 renal
  GI50: 0.151 µM
  TGI: 0.879 µM
PC-3 prostate
  GI50: 0.194 µM
  TGI: 0.744 µM
ACHN renal
  GI50: 0.0925 µM
  TGI: 0.457 µM

## O=C(NN1C(=O)C(Cl)C1c1cccc([N+](=O)[O-])c1)c1ccccc1O (stereo not drawn)
M19-MEL melanoma
  TGI: > 100 µM
DMS 114 small cell lung
  TGI: > 100 µM
KM20L2 colon
  TGI: > 100 µM
TK-10 renal
  TGI: > 100 µM

## Cc1cc(N/N=C/c2nc(-c3ccc(Cl)cc3)oc2C)c2cc(Br)ccc2n1
BT-549 breast
  GI50: 6.91 µM
  TGI: 19.9 µM
TK-10 renal
  GI50: 1.8 µM
  TGI: 3.49 µM
HS 578T breast
  GI50: 4.33 µM
  TGI: 28.3 µM
PC-3 prostate
  GI50: 2.31 µM
  TGI: 6.07 µM
T-47D breast
  GI50: 1.79 µM
  TGI: 3.51 µM
ACHN renal
  GI50: 2.25 µM
  TGI: 5.01 µM

## C/C(=N\NC(=S)N1CCC(N2CCCCC2)CC1)c1ccccn1
M19-MEL melanoma
  TGI: 12.6 µM
DMS 114 small cell lung
  TGI: 8.86 µM
MDA-N
  TGI: 5.9 µM
HOP-18 NSCLC
  TGI: 14.5 µM
KM20L2 colon
  TGI: 14.2 µM
TK-10 renal
  TGI: 6.29 µM
DLD-1 colon
  TGI: > 100 µM
DMS 273 small cell lung
  TGI: 9.43 µM
HS 578T breast
  TGI: 31.7 µM
PC-3 prostate
  TGI: 10.3 µM
T-47D breast
  TGI: 7.01 µM
SNB-78 CNS
  TGI: 27.5 µM
ACHN renal
  TGI: 5.65 µM
